Measurements published in ChEMBL document CHEMBL1201862, “PubChem BioAssay data set” (2004).
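Dose response: 5 concentrations. Exposure: 48 h. Format: 96-well plates. Endpoint: linear interpolation; highest concentration if not reached. At the GI50, growth is halved.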 The source made the active and inactive calls. Rule as the data show it: active = GI50 up to about 1.1 µM and inactive = higher.

How the values were obtained:
Assay in all cases: growth of human tumour cells (NCI), 48 h
[1] = test system: NCI-H226
[2] = test system: HCC 2998
[3] = test system: HCT-15
[4] = test system: SR
[5] = test system: OVCAR-8
[6] = test system: A549
[7] = test system: HCT-116
[8] = test system: K562
[9] = test system: MCF7
[10] = test system: SF-295
[11] = test system: CAKI-1
[12] = test system: UACC-257
[13] = test system: MDA-MB-435
[14] = test system: ACHN
[15] = test system: HOP-62
[16] = test system: 786-0
[17] = test system: NCI-H522
[18] = test system: A498
[19] = test system: MOLT-4
[20] = test system: TK-10

Row | Compound | GI50 [1] | GI50 [2] | GI50 [3] [µM] | GI50 [4] | GI50 [5] | GI50 [6] | GI50 [7] | GI50 [8] | GI50 [9] | GI50 [10] | GI50 [11] | GI50 [12] | GI50 [13] | GI50 [14] | GI50 [15] | GI50 [16] | GI50 [17] | GI50 [18] | GI50 [19] | GI50 [20]
1 | COc1ccc2c(c1OC)C(=O)O[C@@H]2[C@H]1c2c(cc3c(c2OC)OCO3)CCN1C [NOSCAPINE] | > 100 µM (inactive) | 79.4 µM (inactive) | 43.4 | 38.8 µM (inactive) | 63.5 µM (inactive) | 72.9 µM (inactive) | 50.5 µM (inactive) | 33 µM (inactive) | 42.3 µM (inactive) | 30.3 µM (inactive) | 63 µM (inactive) | 55.1 µM (inactive) | 4.86 µM (inactive) | 62.5 µM (inactive) | 71.4 µM (inactive) | 49.9 µM (inactive) | 30.3 µM (inactive) | > 100 µM (inactive) | 23.5 µM (inactive) | 
2 | CCN1C/C(=C\c2cc(OC)c(OC)c(OC)c2)C2=NN(c3ccccc3)C(c3cc(OC)c(OC)c(OC)c3)C2C1 (stereo not given) | 4.68 µM (inactive) | 1.07 µM (active) | 5.58 | 2.03 µM (inactive) | 1.61 µM (inactive) | 1.5 µM (inactive) | 1.89 µM (inactive) | 1.65 µM (inactive) | 6 µM (inactive) | 2.54 µM (inactive) | 0.91 µM (active) | 3.35 µM (inactive) | 1.52 µM (inactive) | 9.33 µM (inactive) | 0.855 µM (active) | 0.398 µM (active) | 1.13 µM (inactive) | 17.1 µM (inactive) | 5.05 µM (inactive) | 1.65 µM (inactive)
3 | CC(=O)Nc1ccc(/N=C2\C(c3ccccc3)=C(SC3=C(c4ccccc4)/C(=N\c4ccc(NC(C)=O)cc4)c4ccccc43)c3ccccc32)cc1 | 53.6 µM (inactive) | 26.7 µM (inactive) | 44.5 | 23.8 µM (inactive) | 29.6 µM (inactive) | 37.2 µM (inactive) | 34.4 µM (inactive) | 32.6 µM (inactive) | 27.4 µM (inactive) | 31 µM (inactive) | 31.4 µM (inactive) | 46 µM (inactive) | 26.5 µM (inactive) | 31.8 µM (inactive) | 29.7 µM (inactive) | 37.3 µM (inactive) | 28.4 µM (inactive) | 20.6 µM (inactive) | 21.6 µM (inactive) | 69.7 µM (inactive)
4 | Fc1ccc2c(c1)nc1n2C(c2c(F)cccc2F)SC1 (stereo not given) | > 100 µM (inactive) | 71.6 µM (inactive) | 38.3 | 18.1 µM (inactive) | 37.1 µM (inactive) | 48.5 µM (inactive) | 25.6 µM (inactive) |  | 42.1 µM (inactive) | 30 µM (inactive) | 32.5 µM (inactive) | 52.7 µM (inactive) | 49.9 µM (inactive) | > 100 µM (inactive) | 66.7 µM (inactive) | 66.7 µM (inactive) | 30.1 µM (inactive) | 71.8 µM (inactive) | 25.8 µM (inactive) | 46.7 µM (inactive)
5 | Nc1nonc1-c1noc(-c2nonc2N)[n+]1[O-] | 49.5 µM (inactive) | > 100 µM (inactive) | 19.7 | 93.8 µM (inactive) |  | 30.3 µM (inactive) | > 100 µM (inactive) | 41 µM (inactive) | 33.3 µM (inactive) | > 100 µM (inactive) | 18.4 µM (inactive) | > 100 µM (inactive) | 57 µM (inactive) | 33.8 µM (inactive) | > 100 µM (inactive) | 37.1 µM (inactive) | 13.1 µM (inactive) | > 100 µM (inactive) | 54.6 µM (inactive) | 43 µM (inactive)
6 | CCOC(=O)/C(C#N)=C/N(CC)/N=C/c1ccccc1 | > 100 µM (inactive) | > 100 µM (inactive) | > 100 | > 100 µM (inactive) | 81.3 µM (inactive) | > 100 µM (inactive) | > 100 µM (inactive) | > 100 µM (inactive) | > 100 µM (inactive) | 69.8 µM (inactive) | > 100 µM (inactive) | > 100 µM (inactive) | > 100 µM (inactive) | > 100 µM (inactive) |  | 86.9 µM (inactive) | > 100 µM (inactive) | > 100 µM (inactive) | > 100 µM (inactive) | > 100 µM (inactive)
7 | Cc1ccc2nc3[nH]nc(N)c3nc2c1 | 45.3 µM (inactive) | > 100 µM (inactive) | 91 | > 100 µM (inactive) | > 100 µM (inactive) | > 100 µM (inactive) | > 100 µM (inactive) |  | > 100 µM (inactive) | > 100 µM (inactive) | 42.6 µM (inactive) | > 100 µM (inactive) | > 100 µM (inactive) | 99.3 µM (inactive) | > 100 µM (inactive) | > 100 µM (inactive) | > 100 µM (inactive) | 85.3 µM (inactive) | 68.5 µM (inactive) | 28 µM (inactive)
